# Earlier results in patent US20240100069A1, “Methods and Compositions for Treating Amyotrophic Lateral Sclerosis” (Amylyx Pharmaceuticals, Inc., priority 2022, published 2024).
# Assays:
# [1] = in vivo
# CYP 1A2 = molecular target: T1, CYP 1A2 (Homo sapiens, UniProt P05177); settings: at 20 times the intended clinical concentration (Cmax)
# T1 sequence (P05177 1-516): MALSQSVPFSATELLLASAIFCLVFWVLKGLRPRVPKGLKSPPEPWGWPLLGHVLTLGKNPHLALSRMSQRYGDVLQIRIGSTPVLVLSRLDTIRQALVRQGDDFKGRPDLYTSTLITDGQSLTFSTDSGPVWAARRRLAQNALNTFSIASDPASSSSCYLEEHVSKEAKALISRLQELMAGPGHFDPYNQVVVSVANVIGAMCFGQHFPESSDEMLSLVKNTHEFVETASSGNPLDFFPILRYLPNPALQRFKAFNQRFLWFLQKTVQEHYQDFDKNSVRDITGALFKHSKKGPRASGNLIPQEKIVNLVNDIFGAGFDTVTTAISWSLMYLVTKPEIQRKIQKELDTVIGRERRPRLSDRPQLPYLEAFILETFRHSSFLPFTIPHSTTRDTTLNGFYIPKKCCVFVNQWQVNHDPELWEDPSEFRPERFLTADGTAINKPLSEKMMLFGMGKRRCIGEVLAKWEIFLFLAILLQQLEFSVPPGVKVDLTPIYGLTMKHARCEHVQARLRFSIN
# CYP 2D6 = CYP 2D6 (Homo sapiens, UniProt P10635); settings: at 20 times the intended clinical concentration (Cmax)
# CYP 2D6, sequence (P10635 whole entry): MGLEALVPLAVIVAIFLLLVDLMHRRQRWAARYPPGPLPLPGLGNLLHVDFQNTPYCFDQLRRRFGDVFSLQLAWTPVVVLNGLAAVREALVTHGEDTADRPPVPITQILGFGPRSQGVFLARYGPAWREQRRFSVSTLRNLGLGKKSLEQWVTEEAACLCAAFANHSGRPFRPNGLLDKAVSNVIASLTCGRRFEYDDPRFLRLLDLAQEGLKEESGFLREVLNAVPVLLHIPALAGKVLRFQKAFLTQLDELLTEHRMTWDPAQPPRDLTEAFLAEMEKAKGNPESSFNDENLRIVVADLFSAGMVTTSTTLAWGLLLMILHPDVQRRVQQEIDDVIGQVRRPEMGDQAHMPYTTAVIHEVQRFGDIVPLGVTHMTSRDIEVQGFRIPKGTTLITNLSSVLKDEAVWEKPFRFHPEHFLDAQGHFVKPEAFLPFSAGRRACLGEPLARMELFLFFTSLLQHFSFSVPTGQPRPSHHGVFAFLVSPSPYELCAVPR
# [2] = test system: G393A SODI mouse model of ALS
molecule,measurement,setting,value
"C[C@H](CCC(=O)NCCS(=O)(=O)O)[C@H]1CC[C@H]2[C@@H]3[C@@H](O)C[C@@H]4C[C@H](O)CC[C@]4(C)[C@H]3CC[C@]12C [TURSO, tauroursodeoxycholic acid]","most common adverse reactions reported (abdominal discomfort, abdominal pain, diarrhea, nausea, pruritus, rash), frequency",[1],≥ 1%
Phenylacetylacetate,inhibition of CYP 1A2,CYP 1A2,inhibitory
same,inhibition of CYP 2D6,CYP 2D6,inhibitory
"O=C(O)CCCc1ccccc1 [Phenylbutyrate, sodium phenylbutyrate]",survival in in vivo models,[2],increase survival
